# In US20250171434A1, “SEC61 INHIBITORS AND USE THEREOF” (KEZAR LIFE SCIENCES, INC., priority 2022, published 2025):
# How the values were obtained:
# CD47(ss + 10)Gluc = test: Dox-Induced CD47-ss-Gluc Assay; type: cell-based; conditions: Flp-In 293 T-REx cells, 24 hours with doxycycline; Table 1; read-out: 24 hr Dox Inducible CD47(ss + 10)Gluc 293FRT/TO: Mean IC50
# [1] = Liver Microsome Stability Assay, monkey; type: in vitro ADME; conditions: monkey liver microsomes 1.0 mg/mL, 1.0 uM compound, 37° C., 1 mM NADPH
# Method: (§1) Stability of a compound was assessed in the presence of liver microsomes from various sources—mouse, rat, monkey and human liver microsomes. 1.0 uM compound, 0.4% DMSO in 0.1 M Potassium Phosphate with 1.0 mg/mL liver microsomes, were incubated at 37° C. with or without 1 mM NADPH. The samples were quenched at 0, and 30 minutes.
# [2] = tested on: PD1-ss+10aa/Gaussia Luciferase; test: Dox-Induced PD1-ss-Gluc Assay; type: cell-based; conditions: Flp-In 293 T-REx cells, 24 hours with doxycycline; Table 1; read-out: 24 hr Dox Inducible PD1ssGluc 293FRT/TO: Mean IC50
# Excerpt: Flp-In 293 T-REx™ cells were transfected with pcDNA™5/FRT/TO plasmid inserted with cDNA encoding Gaussia Luciferase fused to the 3′ end of cDNA encoding PD1 signal sequence plus 10 amino acids (N-[…]-C) (SEQ ID NO: 1). Transfected cells were selected for resistance to the selectable markers Hygromycin and Blasticidin to create a stable cell line that contained the PD1-ss+10aa/Gaussia Luciferase cDNA insert whose expression was regulated under the T-REx™ system. The day before assay, cells were trypsinized and plated in 384-well tissue culture plates. The next day, compound dilutions in DMSO/media containing doxycycline were added to the wells and incubated at 37° C., 5% CO2.
# (§2) For chemical structures that include one or more stereoisomers, but are illustrated without indicating stereochemistry, the assay data refers to a mixture of stereoisomers.
# [3] = tested on: IL6R-ss+10aa/Gaussia Luciferase; test: Dox-induced IL-6R-ss-Gluc Assay; type: cell-based; conditions: Table 1; for IC50: Flp-In 293 T-REx cells, 24 hours with doxycycline, read-out: 24hr Dox Inducible IL6R(ss + 10)Gluc 293FRT/TO: Mean IC50; for 24hr Dox Inducible IL6R(ss + 10)Gluc 293FRT/TO: IL6R/PD1: ratio of IC50s IL6R/PD1
# Excerpt: Flp-In 293 T-REx™ cells were transfected with pcDNATM5/FRT/TO plasmid inserted with cDNA encoding Gaussia Luciferase fused to the 3′ end of cDNA encoding IL6R signal sequence plus 10 amino acids (N-[…]-C). Transfected cells were selected for resistance to the selectable markers Hygromycin and Blasticidin to create a stable cell line that contained the IL6R-ss+10aa/Gaussia Luciferase cDNA insert whose expression was regulated under the T-REx™ system. The day before assay, cells were trypsinized and plated in 384-well tissue culture plates. The next day, compound dilutions in DMSO/media containing doxycycline were added to the wells and incubated at 37° C., 5% CO2.
# as §2
# [4] = tested on: IL-2-FL/Gaussia Luciferase; test: Dox Inducible IL2-FL-Gluc Assay; type: cell-based; conditions: Table 1; for IC50: Flp-In 293 T-REx cells, 24 hours with doxycycline, read-out: 24 hr Dox Inducible IL2FLGluc 293FRT/TO: Mean IC50; for 24 hr Dox Inducible IL2FLGluc 293FRT/TO: IL2/PD1: ratio of IC50s IL2/PD1
# Excerpt: Flp-In 293 T-REx™ cells were transfected with pcDNA™5/FRT/TO plasmid inserted with cDNA encoding Gaussia Luciferase fused to the 3′ end of cDNA encoding full length IL-2 (amino acids 1-153). Transfected cells were selected for resistance to the selectable markers Hygromycin and Blasticidin to create a stable cell line that contained the IL-2-FL/Gaussia Luciferase cDNA insert whose expression was regulated under the T-REx™ system. The day before assay, cells were trypsinized and plated in 384-well tissue culture plates. The next day, compound dilutions in DMSO/media containing doxycycline were added to the wells and incubated at 37° C., 5% CO2.
# as §2
# [5] = tested on: multiple myeloma cell line NCI-H929; test: H929 Cell Viability Assay; type: cell-based, human; conditions: Homo sapiens; NCI-H929 cells, 48 hours, Celltiter-Glo; read-out: 48 hr H929 Viability Celltiter-Glo: Mean EC50
# Method: The human multiple myeloma cell line NCI-H929 was cultured in Advanced RPMI 1640 media (Gibco®) supplemented with 6% fetal bovine serum, 2 mM Glutamine, and 1× Penicillin/Streptomycin. On the day of assay, cells were resuspended in RPMI 1640 media supplemented with 10% fetal bovine serum, 2 mM Glutamine, and 1× Penicillin/Streptomycin and plated in 384-well tissue culture plates and treated with compound dilutions in DMSO/media. Plates were incubated at 37° C., 5% CO2 for 48 hours. After 48 hours, Celltiter-Glo® (Promega) was added to each well and luciferase signal was quantified using Tecan Infinite M1000 Pro for cell viability determination.
# as §2
# [6] = tested on: multiple myeloma cell line U266B1; test: U266 Cell Viability Assay; type: cell-based; conditions: Homo sapiens, U-266; U266B1 cells, 48 hours, Celltiter-Glo; read-out: 48 hr U266 Viability Celltiter-Glo: Mean EC50
# Method: The human multiple myeloma cell line U266B1 was cultured in RPMI 1640 media supplemented with 10% fetal bovine serum, 2 mM Glutamine, and 1× Penicillin/Streptomycin. Cells were plated in 384-well tissue culture plates and treated with compound dilutions in DMSO/media. Plates were incubated at 37° C., 5% CO2 for 48 hours. After 48 hours, Celltiter-Glo® (Promega) was added to each well and luciferase signal was quantified using Tecan Infinite M1000 Pro for cell viability determination.
# as §2
# [7] = Liver Microsome Stability Assay, mouse; type: in vitro ADME; conditions: mouse liver microsomes 1.0 mg/mL, 1.0 uM compound, 37° C., 1 mM NADPH
# Method: as §1
# [8] = Liver Microsome Stability Assay, human; type: in vitro ADME; conditions: human liver microsomes 1.0 mg/mL, 1.0 uM compound, 37° C., 1 mM NADPH
# Method: as §1
# [9] = Liver Microsome Stability Assay, rat; type: in vitro ADME; conditions: rat liver microsomes 1.0 mg/mL, 1.0 uM compound, 37° C., 1 mM NADPH
# Method: as §1
SMILES,IC50 (CD47(ss + 10)Gluc) [nM],Liver Microsome Stability (Multiple Species): Monkey - % Remaining after 30 min w/ NADPH (%) [1] [%],IC50 [2] [nM],IC50 [3] [nM],24hr Dox Inducible IL6R(ss + 10)Gluc 293FRT/TO: IL6R/PD1 [3],IC50 [4] [nM],24 hr Dox Inducible IL2FLGluc 293FRT/TO: IL2/PD1 [4],EC50 [5] [µM],EC50 [6] [µM],Liver Microsome Stability (Multiple Species): Mouse - % Remaining after 30 min w/ NADPH (%) [7] [%],Liver Microsome Stability (Multiple Species): Human - % Remaining after 30 min w/ NADPH (%) [8] [%],Liver Microsome Stability (Multiple Species): Rat - % Remaining after 30 min w/ NADPH (%) [9] [%]
"CC(C)n1cnc(/C=C/c2csc(NC(=O)c3cc(OC(F)F)cn3Cc3ccnc(F)c3)n2)c1Cl [Compound A7, (E)-N-(4-(2-(5-chloro-1-isopropyl-1H-imidazol-4-yl)vinyl)thiazol-2-yl)-4-(difluoromethoxy)-1-((2-fluoropyridin-4-yl)methyl)-1H-pyrrole-2-carboxamide]",2100,55,14,2430,176,2700,200,19.5,> 25,82,64,84
"O=C(Nc1nc(/C=C/c2ncoc2C(F)(F)F)cs1)c1cc(Cl)cn1Cc1ccnc(F)c1 [Compound A8, (E)-4-chloro-1-((2-fluoropyridin-4-yl)methyl)-N-(4-(2-(5-(trifluoromethyl)oxazol-4-yl)vinyl)thiazol-2-yl)-1H-pyrrole-2-carboxamide]",1740,68,129,1960,15,1820,14,7.44,12.8,86,72,47
"COc1cc(C(=O)Nc2nc(/C(F)=C/c3cn(C(C)C)cn3)cs2)n(Cc2ccnc(F)c2)c1 [Compound A9, (Z)-N-(4-(1-fluoro-2-(1-isopropyl-1H-imidazol-4-yl)vinyl)thiazol-2-yl)-1-((2-fluoropyridin-4-yl)methyl)-4-methoxy-1H-pyrrole-2-carboxamide]",> 25000,9,> 25000,> 25000,–,> 25000,–,> 25,> 25,64,11,66
"CC(C)n1cnc(/C=C/c2csc(NC(=O)c3cc(Cl)cn3Cc3ccnc(F)c3)n2)c1C(F)(F)F [Compound A10, (E)-4-chloro-1-((2-fluoropyridin-4-yl)methyl)-N-(4-(2-(1-isopropyl-5-(trifluoromethyl)-1H-imidazol-4-yl)vinyl)thiazol-2-yl)-1H-pyrrole-2-carboxamide]",933,38,11,1060,96,1070,97,5.45,> 25,87,27,77
"[2H]C([2H])(c1ccnc(F)c1)n1cc(Cl)cc1C(=O)Nc1nc(/C=C/c2ncn(C3CC3)c2Cl)cs1 [Compound A11, (E)-4-chloro-N-(4-(2-(5-chloro-1-cyclopropyl-1H-imidazol-4-yl)vinyl)thiazol-2-yl)-1-((2-fluoropyridin-4-yl)methyl-d2)-1H-pyrrole-2-carboxamide]",1460,6,11,1200,112,1180,110,11.9,> 25,87,14,17
"COc1cc(C(=O)Nc2nc(/C=C/c3ncn(C4CC4)c3Cl)cs2)n(Cc2ccnc(F)c2)c1 [Compound A13, (E)-N-(4-(2-(5-chloro-1-cyclopropyl-1H-imidazol-4-yl)vinyl)thiazol-2-yl)-1-((2-fluoropyridin-4-yl)methyl)-4-methoxy-1H-pyrrole-2-carboxamide]",2030,9,5,2560,489,2310,440,> 25,> 25,16,48,62
"[2H]C([2H])(c1ccnc(F)c1)n1cc(OC)cc1C(=O)Nc1nc(/C=C/c2ncn(C3CC3)c2Cl)cs1 [Compound A14, (E)-N-(4-(2-(5-chloro-1-cyclopropyl-1H-imidazol-4-yl)vinyl)thiazol-2-yl)-1-((2-fluoropyridin-4-yl)methyl-d2)-4-methoxy-1H-pyrrole-2-carboxamide]",3310,4,7,2110,318,3440,520,> 25,> 25,76,29,20
